Reference: ChEMBL document CHEMBL3632469, “Discovery of dihydroquinazolinone derivatives as potent, selective, and CNS-penetrant M(1) and M(4) muscarinic acetylcholine receptors agonists” (Bioorg Med Chem Lett, 2015)

How the values were obtained:
[1] = molecular target: T1, Muscarinic acetylcholine receptor M2 (Homo sapiens) (UniProt P08172); assay: Agonist activity at human muscarinic M2 acetylcholine receptor expressed in CHO cells co-expressing Galpha16 assessed as calcium mobilization at 0.3 uM by FLIPR assay; type: functional, cell-based
T1 sequence (whole entry): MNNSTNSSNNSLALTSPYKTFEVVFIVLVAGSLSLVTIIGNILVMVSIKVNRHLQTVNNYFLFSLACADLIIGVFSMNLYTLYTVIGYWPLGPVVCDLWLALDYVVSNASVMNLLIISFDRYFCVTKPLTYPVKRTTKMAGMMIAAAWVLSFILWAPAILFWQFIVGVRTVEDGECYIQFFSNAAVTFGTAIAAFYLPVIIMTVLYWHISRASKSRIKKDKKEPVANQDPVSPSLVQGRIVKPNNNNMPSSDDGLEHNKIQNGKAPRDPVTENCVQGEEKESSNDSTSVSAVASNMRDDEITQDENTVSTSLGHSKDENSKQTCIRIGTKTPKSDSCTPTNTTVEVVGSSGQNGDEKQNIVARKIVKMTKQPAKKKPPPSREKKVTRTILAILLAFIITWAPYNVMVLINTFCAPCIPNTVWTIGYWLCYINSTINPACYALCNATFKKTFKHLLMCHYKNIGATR

[2] = molecular target: T2, Muscarinic acetylcholine receptor M5 (Homo sapiens) (UniProt P08912); assay: Agonist activity at human muscarinic M5 acetylcholine receptor expressed in CHO cells assessed as calcium mobilization at 30 uM by FLIPR assay; type: functional, cell-based
T2 sequence (whole entry): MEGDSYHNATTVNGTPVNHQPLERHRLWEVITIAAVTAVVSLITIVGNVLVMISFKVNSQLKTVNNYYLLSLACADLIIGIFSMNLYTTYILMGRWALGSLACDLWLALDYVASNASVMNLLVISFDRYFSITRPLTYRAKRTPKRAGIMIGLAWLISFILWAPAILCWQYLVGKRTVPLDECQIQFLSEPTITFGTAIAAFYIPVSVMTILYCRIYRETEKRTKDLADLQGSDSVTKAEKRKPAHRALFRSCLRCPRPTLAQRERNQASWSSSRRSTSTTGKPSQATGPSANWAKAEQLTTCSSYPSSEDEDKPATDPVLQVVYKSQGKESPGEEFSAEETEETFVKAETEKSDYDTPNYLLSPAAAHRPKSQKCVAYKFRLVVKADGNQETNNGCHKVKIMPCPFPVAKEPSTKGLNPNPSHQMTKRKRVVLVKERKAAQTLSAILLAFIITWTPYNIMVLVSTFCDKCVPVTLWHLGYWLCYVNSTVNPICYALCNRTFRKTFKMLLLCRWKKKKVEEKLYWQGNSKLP

[3] = Permeability of the compound at pH 7.4 by PAMPA method; type: physicochemical; details: read-out: permeability
Cytochrome P450 2C9 = Cytochrome P450 2C9 (Homo sapiens, UniProt P11712); assay: Inhibition of CYP2C9 (unknown origin); type: ADME
Cytochrome P450 2C9, sequence (P11712 whole entry): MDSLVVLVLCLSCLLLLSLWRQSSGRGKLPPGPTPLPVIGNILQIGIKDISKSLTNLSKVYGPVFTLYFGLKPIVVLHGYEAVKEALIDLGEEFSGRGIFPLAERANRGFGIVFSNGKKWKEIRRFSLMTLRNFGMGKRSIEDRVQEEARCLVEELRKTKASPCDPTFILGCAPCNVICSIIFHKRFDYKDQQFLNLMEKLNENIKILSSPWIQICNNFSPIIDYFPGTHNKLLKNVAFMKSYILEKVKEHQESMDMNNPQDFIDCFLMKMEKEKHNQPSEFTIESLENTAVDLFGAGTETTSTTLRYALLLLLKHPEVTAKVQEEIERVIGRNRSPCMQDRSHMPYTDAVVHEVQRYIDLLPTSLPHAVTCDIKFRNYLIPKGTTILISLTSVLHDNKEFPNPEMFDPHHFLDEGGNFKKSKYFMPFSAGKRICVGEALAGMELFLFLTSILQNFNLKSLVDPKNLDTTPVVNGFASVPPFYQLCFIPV

[4] = molecular target: Alpha-1A adrenergic receptor (Homo sapiens) (UniProt P35348); assay: Binding affinity to adrenergic alpha1A receptor (unknown origin) at 3 uM by radioligand-binding assay
Alpha-1A adrenergic receptor (Homo sapiens), sequence (P35348 whole entry): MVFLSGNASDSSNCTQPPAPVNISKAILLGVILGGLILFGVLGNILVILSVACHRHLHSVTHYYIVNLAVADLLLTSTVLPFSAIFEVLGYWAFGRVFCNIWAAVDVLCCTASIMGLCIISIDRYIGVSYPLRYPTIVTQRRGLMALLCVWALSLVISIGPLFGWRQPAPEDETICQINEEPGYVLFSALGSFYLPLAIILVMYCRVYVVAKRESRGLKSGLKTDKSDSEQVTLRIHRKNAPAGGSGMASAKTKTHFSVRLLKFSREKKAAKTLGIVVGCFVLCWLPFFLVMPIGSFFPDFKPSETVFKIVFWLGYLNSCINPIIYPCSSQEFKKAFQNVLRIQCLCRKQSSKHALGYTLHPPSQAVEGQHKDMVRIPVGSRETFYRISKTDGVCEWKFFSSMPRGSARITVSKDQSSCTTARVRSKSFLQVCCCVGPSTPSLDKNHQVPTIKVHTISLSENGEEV

[5] = molecular target: Histamine H1 receptor (Homo sapiens) (UniProt P35367); assay: Binding affinity to histamine H1 receptor (unknown origin) at 3 uM by radioligand-binding assay
Histamine H1 receptor (Homo sapiens), sequence (P35367 whole entry): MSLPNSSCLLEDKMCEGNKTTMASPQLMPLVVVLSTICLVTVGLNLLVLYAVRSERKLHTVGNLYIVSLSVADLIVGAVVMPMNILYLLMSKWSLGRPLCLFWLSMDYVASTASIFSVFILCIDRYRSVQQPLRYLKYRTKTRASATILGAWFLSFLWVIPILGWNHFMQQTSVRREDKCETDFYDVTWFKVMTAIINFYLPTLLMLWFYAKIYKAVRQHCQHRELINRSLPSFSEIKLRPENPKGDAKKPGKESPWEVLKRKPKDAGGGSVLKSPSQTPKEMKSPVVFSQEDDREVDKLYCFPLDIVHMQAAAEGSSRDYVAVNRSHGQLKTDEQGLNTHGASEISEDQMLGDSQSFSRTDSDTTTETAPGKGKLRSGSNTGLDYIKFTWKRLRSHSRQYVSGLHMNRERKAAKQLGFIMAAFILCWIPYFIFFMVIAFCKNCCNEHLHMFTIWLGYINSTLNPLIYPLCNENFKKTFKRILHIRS

[6] = molecular target: Muscarinic acetylcholine receptor M1 (Homo sapiens, UniProt P11229); assay: Agonist activity at human muscarinic M1 acetylcholine receptor expressed in CHO cells assessed as calcium mobilization by FLIPR assay; type: functional, cell-based
[7] = molecular target: Alpha-2A adrenergic receptor (Homo sapiens) (UniProt P08913); assay: Agonist activity at adrenergic a2a receptor (unknown origin) expressed in CHO cells assessed as calcium mobilization at 3 uM; type: functional, cell-based
Alpha-2A adrenergic receptor (Homo sapiens), sequence (P08913 whole entry): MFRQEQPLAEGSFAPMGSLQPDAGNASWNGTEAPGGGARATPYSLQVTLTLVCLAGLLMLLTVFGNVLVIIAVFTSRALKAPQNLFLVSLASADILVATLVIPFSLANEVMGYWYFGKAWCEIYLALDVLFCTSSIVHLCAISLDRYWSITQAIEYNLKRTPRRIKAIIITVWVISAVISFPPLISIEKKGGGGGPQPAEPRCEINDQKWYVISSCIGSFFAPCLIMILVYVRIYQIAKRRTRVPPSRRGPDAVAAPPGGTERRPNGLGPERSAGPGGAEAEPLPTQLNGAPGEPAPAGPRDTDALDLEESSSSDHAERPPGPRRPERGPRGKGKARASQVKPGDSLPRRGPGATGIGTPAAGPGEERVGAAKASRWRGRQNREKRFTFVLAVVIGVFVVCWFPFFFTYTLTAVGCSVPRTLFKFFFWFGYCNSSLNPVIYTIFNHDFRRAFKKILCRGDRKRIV

[8] = molecular target: Beta-1 adrenergic receptor (Homo sapiens) (UniProt P08588); assay: Agonist activity at adrenergic beta1 receptor (unknown origin) expressed in CHO cells assessed as calcium mobilization at 3 uM; type: functional, cell-based
[9] = molecular target: Cannabinoid receptor 1 (Homo sapiens) (UniProt P21554); assay: Agonist activity at CB1 receptor (unknown origin) expressed in CHO cells assessed as calcium mobilization at 3 uM; type: functional, cell-based
[10] = molecular target: Neuropeptide Y receptor type 2 (Homo sapiens) (UniProt P49146); assay: Agonist activity at NPY2 receptor (unknown origin) expressed in CHO cells assessed as calcium mobilization at 3 uM; type: functional, cell-based
Neuropeptide Y receptor type 2 (Homo sapiens), sequence (P49146 whole entry): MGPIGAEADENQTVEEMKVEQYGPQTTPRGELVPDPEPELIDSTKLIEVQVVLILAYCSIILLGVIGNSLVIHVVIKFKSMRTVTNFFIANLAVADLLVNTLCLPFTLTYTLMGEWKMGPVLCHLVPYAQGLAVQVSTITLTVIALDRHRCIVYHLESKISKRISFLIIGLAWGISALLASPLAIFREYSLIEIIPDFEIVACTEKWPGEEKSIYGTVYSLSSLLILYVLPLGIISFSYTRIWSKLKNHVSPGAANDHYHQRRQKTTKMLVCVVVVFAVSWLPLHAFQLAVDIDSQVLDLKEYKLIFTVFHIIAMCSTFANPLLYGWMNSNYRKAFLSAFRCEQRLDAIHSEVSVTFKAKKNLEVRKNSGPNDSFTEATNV

[11] = molecular target: Delta-type opioid receptor (Homo sapiens) (UniProt P41143); assay: Agonist activity at opiate delta1 receptor (unknown origin) expressed in CHO cells assessed as calcium mobilization at 3 uM; type: functional, cell-based
Delta-type opioid receptor (Homo sapiens), sequence (P41143 whole entry): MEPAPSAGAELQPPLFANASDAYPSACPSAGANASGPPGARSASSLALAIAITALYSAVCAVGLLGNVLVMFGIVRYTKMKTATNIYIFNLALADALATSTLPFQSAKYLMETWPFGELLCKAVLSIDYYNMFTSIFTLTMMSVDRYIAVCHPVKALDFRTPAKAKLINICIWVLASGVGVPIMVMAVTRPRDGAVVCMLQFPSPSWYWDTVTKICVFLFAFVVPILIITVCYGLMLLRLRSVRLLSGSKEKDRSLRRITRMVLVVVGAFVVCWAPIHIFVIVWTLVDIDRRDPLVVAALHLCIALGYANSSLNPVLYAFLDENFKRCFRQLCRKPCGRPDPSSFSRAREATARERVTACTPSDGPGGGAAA

[12] = molecular target: Kappa-type opioid receptor (Homo sapiens) (UniProt P41145); assay: Agonist activity at ppiate kappa receptor (unknown origin) expressed in CHO cells assessed as calcium mobilization at 3 uM; type: functional, cell-based
Kappa-type opioid receptor (Homo sapiens), sequence (P41145 whole entry): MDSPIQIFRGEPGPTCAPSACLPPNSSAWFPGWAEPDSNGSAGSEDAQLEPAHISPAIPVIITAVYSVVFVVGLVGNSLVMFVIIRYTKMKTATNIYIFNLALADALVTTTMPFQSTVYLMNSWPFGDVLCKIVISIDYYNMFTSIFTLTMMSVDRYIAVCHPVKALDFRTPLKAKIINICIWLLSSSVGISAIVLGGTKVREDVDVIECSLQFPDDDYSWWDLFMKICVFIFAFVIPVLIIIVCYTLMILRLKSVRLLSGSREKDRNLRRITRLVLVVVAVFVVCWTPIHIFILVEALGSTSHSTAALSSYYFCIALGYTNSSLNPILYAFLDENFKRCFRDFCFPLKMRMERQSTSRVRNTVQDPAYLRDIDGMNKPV

[13] = molecular target: Nociceptin receptor (Homo sapiens) (UniProt P41146); assay: Agonist activity at OPRL1 receptor (unknown origin) expressed in CHO cells assessed as calcium mobilization at 3 uM; type: functional, cell-based
Nociceptin receptor (Homo sapiens), sequence (P41146 whole entry): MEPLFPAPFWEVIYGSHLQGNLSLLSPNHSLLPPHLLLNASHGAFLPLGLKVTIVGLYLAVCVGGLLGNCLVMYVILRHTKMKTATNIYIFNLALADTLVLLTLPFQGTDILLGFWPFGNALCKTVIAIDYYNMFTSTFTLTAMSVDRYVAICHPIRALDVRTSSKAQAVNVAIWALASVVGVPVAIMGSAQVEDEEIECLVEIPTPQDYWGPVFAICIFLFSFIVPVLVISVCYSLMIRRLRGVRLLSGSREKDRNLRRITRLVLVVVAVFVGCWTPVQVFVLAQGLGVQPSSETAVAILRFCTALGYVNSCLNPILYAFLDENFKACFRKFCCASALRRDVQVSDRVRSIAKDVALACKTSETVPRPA

[14] = molecular target: 5-hydroxytryptamine receptor 1A (Homo sapiens) (UniProt P08908); assay: Agonist activity at 5-HT1a receptor (unknown origin) expressed in CHO cells assessed as calcium mobilization at 3 uM; type: functional, cell-based
5-hydroxytryptamine receptor 1A (Homo sapiens), sequence (P08908 whole entry): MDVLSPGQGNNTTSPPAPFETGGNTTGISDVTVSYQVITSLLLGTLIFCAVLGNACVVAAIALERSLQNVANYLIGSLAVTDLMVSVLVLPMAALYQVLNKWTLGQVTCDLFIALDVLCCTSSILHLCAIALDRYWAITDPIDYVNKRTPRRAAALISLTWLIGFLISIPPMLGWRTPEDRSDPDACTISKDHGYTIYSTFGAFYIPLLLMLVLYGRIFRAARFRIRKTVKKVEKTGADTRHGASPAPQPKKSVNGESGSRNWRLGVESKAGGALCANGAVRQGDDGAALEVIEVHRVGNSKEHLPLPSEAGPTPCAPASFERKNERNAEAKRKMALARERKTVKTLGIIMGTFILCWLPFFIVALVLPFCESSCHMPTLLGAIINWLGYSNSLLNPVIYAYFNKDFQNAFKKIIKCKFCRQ

[15] = molecular target: 5-hydroxytryptamine receptor 1E (Homo sapiens) (UniProt P28566); assay: Agonist activity at 5-HT1E receptor (unknown origin) expressed in CHO cells assessed as calcium mobilization at 3 uM; type: functional, cell-based
[16] = molecular target: P2Y purinoceptor 1 (Homo sapiens) (UniProt P47900); assay: Agonist activity at P2Y1 receptor (unknown origin) expressed in CHO cells assessed as calcium mobilization at 3 uM; type: functional, cell-based
P2Y purinoceptor 1 (Homo sapiens), sequence (P47900 whole entry): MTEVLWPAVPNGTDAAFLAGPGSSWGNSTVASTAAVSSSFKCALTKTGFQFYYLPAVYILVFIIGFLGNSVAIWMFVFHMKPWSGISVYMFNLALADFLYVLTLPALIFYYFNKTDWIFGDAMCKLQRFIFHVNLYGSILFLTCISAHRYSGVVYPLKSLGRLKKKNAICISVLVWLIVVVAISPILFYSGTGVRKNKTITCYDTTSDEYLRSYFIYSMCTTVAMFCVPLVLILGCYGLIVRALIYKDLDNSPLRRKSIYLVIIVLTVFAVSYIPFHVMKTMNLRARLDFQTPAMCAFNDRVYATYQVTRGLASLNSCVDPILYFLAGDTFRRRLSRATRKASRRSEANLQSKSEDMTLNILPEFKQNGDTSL

[17] = molecular target: Adrenergic receptor alpha-1 (Homo sapiens) (UniProt P35348+P25100+P35368); assay: Antagonist activity at adrenergic a1 receptor (unknown origin) expressed in CHO cells assessed as calcium mobilization at 3 uM; type: functional, cell-based
[18] = molecular target: Histamine H2 receptor (Homo sapiens) (UniProt P25021); assay: Antagonist activity at histamine H2 receptor (unknown origin) expressed in CHO cells assessed as calcium mobilization at 3 uM; type: functional, cell-based
[19] = molecular target: Neuropeptide Y receptor type 2 (Homo sapiens) (UniProt P49146); assay: Antagonist activity at NPY2 receptor (unknown origin) expressed in CHO cells assessed as calcium mobilization at 3 uM; type: functional, cell-based
[20] = molecular target: 5-hydroxytryptamine receptor 1A (Homo sapiens) (UniProt P08908); assay: Antagonist activity at 5-HT1a receptor (unknown origin) expressed in CHO cells assessed as calcium mobilization at 3 uM; type: functional, cell-based
[21] = molecular target: 5-hydroxytryptamine receptor 4 (Homo sapiens) (UniProt Q13639); assay: Antagonist activity at 5-HT4B receptor (unknown origin) expressed in CHO cells assessed as calcium mobilization at 3 uM; type: functional, cell-based
5-hydroxytryptamine receptor 4 (Homo sapiens), sequence (Q13639 whole entry): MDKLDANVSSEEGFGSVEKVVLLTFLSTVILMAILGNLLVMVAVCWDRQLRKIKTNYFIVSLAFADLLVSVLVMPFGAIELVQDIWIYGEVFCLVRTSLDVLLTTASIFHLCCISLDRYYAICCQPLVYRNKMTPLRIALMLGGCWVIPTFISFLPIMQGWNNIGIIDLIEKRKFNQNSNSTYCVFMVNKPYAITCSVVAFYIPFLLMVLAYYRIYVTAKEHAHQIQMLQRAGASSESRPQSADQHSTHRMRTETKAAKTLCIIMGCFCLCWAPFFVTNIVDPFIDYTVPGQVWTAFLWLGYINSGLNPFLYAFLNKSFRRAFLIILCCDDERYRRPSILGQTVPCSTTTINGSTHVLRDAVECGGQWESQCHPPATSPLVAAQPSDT

[22] = molecular target: 5-hydroxytryptamine receptor 6 (Homo sapiens) (UniProt P50406); assay: Antagonist activity at 5-HT6 receptor (unknown origin) expressed in CHO cells assessed as calcium mobilization at 3 uM; type: functional, cell-based

Compound `CCOC(=O)N1[C@@H]2CC[C@H]1C[C@H](CN1CC[C@@H](N3Cc4ccccc4NC3=O)C1)C2` has an Activity [1] of 1%, an Activity [2] of 3% and a Papp [3] of 53.8 ×10⁻⁶ cm/s. For the same compound, the IC50 (Cytochrome P450 2C9) was over 2000 nM, the inhibition [4] was 6% and the inhibition [5] was 6%. For the same compound, the EC50 [6] was 14 nM, the Activity [7] was -0.95% and the Activity [8] was 0.03%. For the same compound, the Activity [9] was 1.66%, the Activity [10] was 1.73% and the Activity [11] was -0.04%. It also gave an Activity [12] of -0.33%, an Activity [13] of 0.23% and an Activity [14] of 0.06%. The Activity [15] was 0.11%, the Activity [16] was -0.18% and the inhibition [17] was 5.57%. The inhibition [18] was 5.27%, the inhibition [19] was -1.91% and the inhibition [20] was -3.46%. The inhibition [21] was -1.57% and the inhibition [22] was 1.97%.
